Values quoted from earlier work, collected in patent US8143291B2, “Indole compounds bearing aryl or heteroaryl groups having sphingosine-1-phosphate (S1P) receptor biological activity” (Allergan, Inc., priority 2008, dated 2012).

Test system: perfused porcine eyes
Settings: by altering paracellular permeability, IOVS 45, 2263, 2004

CCCCCCCCCCCCC/C=C/[C@@H](O)[C@@H](N)COP(=O)(O)O [S1P, Sphingosine-1-phosphate]
decrease of outflow facility: > 30%
